In US11066396B2 (priority 2016, dated 2021):

Legend:
HDAC1 = HDAC1 (Homo sapiens (Human), UniProt Q13547); settings: read-out: HDAC1 IC50
Experimental: Assay protocol: In brief, compounds were titrated in 100% DMSO via accoustic dispensing directly to the assay plate using the ECHO 550 [Labcyte]. HDAC enzymes at the concentrations indicated above were added in assay buffer to the assay plates containing the compounds using a Combi [Thermo Scientific]. The wells were mixed, and the plates were allowed to pre-incubate at ambient temperature for 3 h. After the 3 h, the appropriate substrate, at the concentrations indicated above, was added to the wells using a Combi. The wells were mixed, and the plates were allowed to incubate at ambient temperature for 1 h. After the 1 h, the appropriate Developer/stop solution was added to the wells using a Combi. The wells were mixed, and the plates were allowed to incubate at ambient temperature for 1 h. […] Data were analyzed using 4P curve fitting with Activity Base [IDBS] software.

HDAC5 = HDAC5 (Homo sapiens (Human), UniProt Q9UQL6); settings: read-out: HDAC5 IC50
Chain of HDAC5 (Q9UQL6 656-1122): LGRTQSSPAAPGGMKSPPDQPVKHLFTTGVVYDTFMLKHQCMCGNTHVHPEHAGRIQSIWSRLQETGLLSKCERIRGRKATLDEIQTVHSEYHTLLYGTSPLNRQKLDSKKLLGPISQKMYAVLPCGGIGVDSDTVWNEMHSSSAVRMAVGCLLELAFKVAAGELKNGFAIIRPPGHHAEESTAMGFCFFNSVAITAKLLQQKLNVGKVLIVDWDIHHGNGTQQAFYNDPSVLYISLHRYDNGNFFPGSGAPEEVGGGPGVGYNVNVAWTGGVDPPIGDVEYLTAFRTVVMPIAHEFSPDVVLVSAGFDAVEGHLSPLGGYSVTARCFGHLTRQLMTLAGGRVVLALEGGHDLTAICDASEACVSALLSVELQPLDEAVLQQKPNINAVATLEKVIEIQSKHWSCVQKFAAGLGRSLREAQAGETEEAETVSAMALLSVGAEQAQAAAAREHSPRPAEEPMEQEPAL

Chain of HDAC1 (Q13547 whole entry): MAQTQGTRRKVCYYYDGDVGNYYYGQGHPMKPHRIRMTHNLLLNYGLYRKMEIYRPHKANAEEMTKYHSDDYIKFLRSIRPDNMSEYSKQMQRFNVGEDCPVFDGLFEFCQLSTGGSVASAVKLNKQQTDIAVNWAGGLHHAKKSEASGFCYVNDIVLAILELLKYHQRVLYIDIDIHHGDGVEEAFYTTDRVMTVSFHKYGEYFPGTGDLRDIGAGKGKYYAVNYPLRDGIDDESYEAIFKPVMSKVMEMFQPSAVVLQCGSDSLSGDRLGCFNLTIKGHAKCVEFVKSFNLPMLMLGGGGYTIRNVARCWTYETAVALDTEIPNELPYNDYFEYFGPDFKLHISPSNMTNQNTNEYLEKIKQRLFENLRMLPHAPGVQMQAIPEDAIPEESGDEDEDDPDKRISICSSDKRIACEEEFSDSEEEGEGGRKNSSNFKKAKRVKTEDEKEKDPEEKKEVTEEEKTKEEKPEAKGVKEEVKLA

Compound | IC50 (HDAC1) | IC50 (HDAC5)
Cc1cncc(OCc2ccc(-c3noc(C(F)(F)F)n3)c(F)c2)c1 [Example 269, 3-({3-fluoro-4-[5-(trifluoromethyl)-1,2,4-oxadiazol-3-yl]phenyl}methoxy)-5-methylpyridine] | 7100 nM | 500 nM
Fc1cc(COc2cccnn2)ccc1-c1noc(C(F)(F)F)n1 [Example 257, 3-({3-fluoro-4-[5-(trifluoromethyl)-1,2,4-oxadiazol-3-yl]phenyl}methoxy)pyridazine] | 6400 nM | 200 nM
Fc1cc(COc2nc3cccnc3n2CC(F)(F)F)ccc1-c1noc(C(F)(F)F)n1 [Example 278, 2-({3-fluoro-4-[5-(trifluoromethyl)-1,2,4-oxadiazol-3-yl]phenyl}methoxy)-3-(2,2,2-trifluoroethyl)-3H-imidazo[4,5-b]pyridine] | 780 nM | 86 nM
Cn1c(OCc2ccc(-c3noc(C(F)(F)F)n3)cn2)nc2cccnc21 [Example 304, 3-methyl-2-({5-[5-(trifluoromethyl)-1,2,4-oxadiazol-3-yl]pyridin-2-yl}methoxy)-3H-imidazo[4,5-b]pyridine] | 250 nM | 79 nM
FC(F)(F)c1nc(-c2ccc(COc3nccc4nccn34)nc2)no1 [Example 303, 5-({5-[5-(trifluoromethyl)-1,2,4-oxadiazol-3-yl]pyridin-2-yl}methoxy)imidazo[1,2-c]pyrimidine] | 990 nM | 170 nM
Fc1cc(COc2cncc(Cl)c2)ccc1-c1noc(C(F)(F)F)n1 [Example 287, 3-chloro-5-({3-fluoro-4-[5-(trifluoromethyl)-1,2,4-oxadiazol-3-yl]phenyl}methoxy)pyridine] | 1800 nM | 150 nM
Cc1ncc(COc2nccc(-c3noc(C(F)(F)F)n3)c2Cl)c(C)n1 [Example 292, 5-[({3-chloro-4-[5-(trifluoromethyl)-1,2,4-oxadiazol-3-yl]pyridin-2-yl}oxy)methyl]-2,4-dimethylpyrimidine] | 6500 nM | 540 nM
FC(F)(F)c1nc(-c2ccc(COc3ccc(Cl)nc3)nc2)no1 [Example 310, 2-chloro-5-({5-[5-(trifluoromethyl)-1,2,4-oxadiazol-3-yl]pyridin-2-yl}methoxy)pyridine] | 2400 nM | 770 nM
Fc1cccnc1COc1nccc(-c2noc(C(F)(F)F)n2)c1Cl [Example 291, 3-chloro-2-[(3-fluoropyridin-2-yl)methoxy]-4-[5-(trifluoromethyl)-1,2,4-oxadiazol-3-yl]pyridine] | 9300 nM | 190 nM
Fc1cc(COc2cnc3[nH]ccc3c2)ccc1-c1noc(C(F)(F)F)n1 [Example 259, 5-({3-fluoro-4-[5-(trifluoromethyl)-1,2,4-oxadiazol-3-yl]phenyl}methoxy)-1H-pyrrolo[2,3-b]pyridine] | 4200 nM | 84 nM
Fc1ccc(OCc2ccc(-c3noc(C(F)(F)F)n3)c(F)c2)cn1 [Example 260, 2-fluoro-5-({3-fluoro-4-[5-(trifluoromethyl)-1,2,4-oxadiazol-3-yl]phenyl}methoxy)pyridine] | 12000 nM | 120 nM
NCc1ccccc1OCc1ccc(-c2noc(C(F)(F)F)n2)c(F)c1 [Example 270, 1-[2-({3-fluoro-4-[5-(trifluoromethyl)-1,2,4-oxadiazol-3-yl]phenyl}methoxy)phenyl]methanamine] | 2300 nM | 160 nM
Cn1cc(COc2nccc(-c3noc(C(F)(F)F)n3)c2Cl)nn1 [Example 293, 3-chloro-2-[(1-methyl-1H-1,2,3-triazol-4-yl)methoxy]-4-[5-(trifluoromethyl)-1,2,4-oxadiazol-3-yl]pyridine] | 4500 nM | 510 nM
CNC(=O)c1ccccc1OCc1ccc(-c2noc(C(F)(F)F)n2)c(F)c1 [Example 284, 2-({3-fluoro-4-[5-(trifluoromethyl)-1,2,4-oxadiazol-3-yl]phenyl}methoxy)-N-methylbenzamide] | 2200 nM | 260 nM
FC(F)(F)c1nc(-c2ccc(COc3ccc4cnccc4n3)nc2)no1 [Example 311, 2-({5-[5-(trifluoromethyl)-1,2,4-oxadiazol-3-yl]pyridin-2-yl}methoxy)-1,6-naphthyridine] | 880 nM | 540 nM
Fc1cc(COc2ccc3cncnc3c2)ccc1-c1noc(C(F)(F)F)n1 [Example 285, 7-({3-fluoro-4-[5-(trifluoromethyl)-1,2,4-oxadiazol-3-yl]phenyl}methoxy)quinazoline] | 3400 nM | 280 nM
O=C(NC(Cc1ccc(-c2noc(C(F)(F)F)n2)cn1)c1cccc(C(F)(F)F)c1)c1ccccc1 (racemic) [Example 486, N-(2-{5-[5-(trifluoromethyl)-1,2,4-oxadiazol-3-yl]pyridin-2-yl}-1-[3-(trifluoromethyl)phenyl]ethyl)benzamide] | 690 nM | 670 nM

Compound | IC50 (HDAC1) | IC50 (HDAC5)
Fc1cc(F)c(OCc2ccc(-c3noc(C(F)(F)F)n3)c(F)c2)cn1 [Example 283, 2,4-difluoro-5-({3-fluoro-4-[5-(trifluoromethyl)-1,2,4-oxadiazol-3-yl]phenyl}methoxy)pyridine] | 45000 nM | 75 nM
Fc1cc(COc2cnc(C3CC3)nc2)ccc1-c1noc(C(F)(F)F)n1 [Example 276, 2-cyclopropyl-5-({3-fluoro-4-[5-(trifluoromethyl)-1,2,4-oxadiazol-3-yl]phenyl}methoxy)pyrimidine] | 1500 nM | 120 nM
O=C(N1CCOCC1)N(Cc1ncc(-c2noc(C(F)(F)F)n2)cn1)c1cccc(C(F)(F)F)c1 [Example 50, N-((5-(5-(trifluoromethyl)-1,2,4-oxadiazol-3-yl)pyrimidin-2-yl)methyl)-N-(3-(trifluoromethyl)phenyl)morpholine-4-carboxamide] | 240 nM | 820 nM
FC(F)(F)c1nc(-c2ccc(COc3nc(C4CC4)no3)nc2)no1 [Example 296, 2-{[(3-cyclopropyl-1,2,4-oxadiazol-5-yl)oxy]methyl}-5-[5-(trifluoromethyl)-1,2,4-oxadiazol-3-yl]pyridine] | 3700 nM | 49 nM
COc1ccc2cc(OCc3ccc(-c4noc(C(F)(F)F)n4)c(F)c3)nnc2c1 [Example 275, 3-({3-fluoro-4-[5-(trifluoromethyl)-1,2,4-oxadiazol-3-yl]phenyl}methoxy)-7-methoxycinnoline] | 860 nM | 87 nM
Fc1cc(COc2ccc3cccc(F)c3n2)ccc1-c1noc(C(F)(F)F)n1 [Example 282, 8-fluoro-2-({3-fluoro-4-[5-(trifluoromethyl)-1,2,4-oxadiazol-3-yl]phenyl}methoxy)quinoline] | 720 nM | 7 nM
O=S1(=O)CCC(S(=O)(=O)N(Cc2ccc(-c3noc(C(F)(F)F)n3)cc2)c2cccc(C(F)(F)F)c2)C1 (racemic) [Example 492, 1,1-dioxo-N-({4-[5-(trifluoromethyl)-1,2,4-oxadiazol-3-yl]phenyl}methyl)-N-[3-(trifluoromethyl)phenyl]-llambda~6~-thiolane-3-sulfonamide] | 1200 nM | 390 nM
CC1(C)C(=O)NCCN1C(=O)[C@@H]1CCC(=O)N1c1ccc(-c2noc(C(F)(F)F)n2)c(F)c1 [Example 345, 4-(1-{3-fluoro-4-[5-(trifluoromethyl)-1,2,4-oxadiazol-3-yl]phenyl}-5-oxo-L-prolyl)-3,3-dimethylpiperazin-2-one] | 43000 nM | 1500 nM
Fc1cc(-c2noc(C(F)(F)F)n2)ccc1COc1ccccc1 [Example 168, 3-(3-Fluoro-4-(phenoxymethyl)phenyl)-5-(trifluoromethyl)-1,2,4-oxadiazole] | 15000 nM | 1100 nM
Fc1cc(COc2nc3ncccc3n2CC(F)(F)F)ccc1-c1noc(C(F)(F)F)n1 [Example 277, 2-({3-fluoro-4-[5-(trifluoromethyl)-1,2,4-oxadiazol-3-yl]phenyl}methoxy)-1-(2,2,2-trifluoroethyl)-1H-imidazo[4,5-b]pyridine] | 2000 nM | 130 nM
O=C(NC(Cc1ccc(-c2noc(C(F)(F)F)n2)cn1)c1cccc(C(F)(F)F)c1)c1ccccn1 (racemic) [Example 488, N-(2-{5-[5-(trifluoromethyl)-1,2,4-oxadiazol-3-yl]pyridin-2-yl}-1-[3-(trifluoromethyl)phenyl]ethyl)pyridine-2-carboxamide] | 880 nM | 670 nM
COc1cncc(OCc2ccc(-c3noc(C(F)(F)F)n3)c(F)c2)c1 [Example 258, 3-({3-fluoro-4-[5-(trifluoromethyl)-1,2,4-oxadiazol-3-yl]phenyl}methoxy)-5-methoxypyridine] | 1200 nM | 150 nM
FC(F)(F)c1nc(-c2ccnc(OCc3nccnc3Cl)c2Cl)no1 [Example 294, 2-chloro-3-[({3-chloro-4-[5-(trifluoromethyl)-1,2,4-oxadiazol-3-yl]pyridin-2-yl}oxy)methyl]pyrazine] | 12000 nM | 410 nM
NCc1cccc(OCc2ccc(-c3noc(C(F)(F)F)n3)c(F)c2)c1 [Example 267, 1-[3-({3-fluoro-4-[5-(trifluoromethyl)-1,2,4-oxadiazol-3-yl]phenyl}methoxy)phenyl]methanamine] | 1100 nM | 200 nM
Fc1ccc2ccc(OCc3ccc(-c4noc(C(F)(F)F)n4)c(F)c3)nc2n1 [Example 261, 2-fluoro-7-({3-fluoro-4-[5-(trifluoromethyl)-1,2,4-oxadiazol-3-yl]phenyl}methoxy)-1,8-naphthyridine] | 850 nM | 24 nM
CCS(=O)(=O)N(Cc1ccc(-c2noc(C(F)(F)F)n2)cc1)c1cccc(C(F)(F)F)c1 [Example 491, N-({4-[5-(trifluoromethyl)-1,2,4-oxadiazol-3-yl]phenyl}methyl)-N-[3-(trifluoromethyl)phenyl]ethanesulfonamide] | 820 nM | 140 nM
Fc1cc(COc2cccc(Cl)n2)ccc1-c1noc(C(F)(F)F)n1 [Example 286, 2-chloro-6-({3-fluoro-4-[5-(trifluoromethyl)-1,2,4-oxadiazol-3-yl]phenyl}methoxy)pyridine] | 2700 nM | 50 nM
